US20260176289A1, “SMALL MOLECULE INHIBITORS OF KRAS PROTEINS” (Merck Sharp & Dohme LLC, priority 2022, published 2026)
Read-outs that look alike come from different tables or passages of the source.

How the values were obtained:
KRAS-G12D = KRAS-G12D (Homo sapiens, UniProt P01116, G12D); test: SOS-catalyzed nucleotide exchange assay (Procedure A, TR-FRET), KRAS-G12D; assay type: biochemical; conditions: nucleotide exchange, read-out: KRAS G12D GNE IC50
Text: (§1) Procedure for SOS-Catalyzed Nucleotide Exchange Assay for KRAS-WT, G12C/D/V, G13D, HRAS, and NRAS (Procedure A)
(§2) Recombinant KRAS-G12C protein used in this assay has an additional triple mutation (C51S/C80L/C118S). Whereas KRAS-WT, G12D/V, G13D, HRAS and NRAS are in context of their WT protein sequence background. Specifically, the SOS-catalyzed nucleotide exchange assay utilizes a preformed TR-FRET complex containing a specific biotinylated RAS protein (KRAS-WT, G12C/V/D, G13D, HRAS, NRAS; described above) with Bodipy-GDP, and Terbium-streptavidin. Compounds are preincubated with this complex for 60 minutes. Subsequently, recombinant human SOS protein and unlabeled GTP are added to initiate the exchange reaction. Small molecule inhibitors stabilize the Bodipy-GDP complex whereas the untreated protein rapidly exchanges Bodipy-GDP for unlabeled GTP resulting in reduced TR-FRET signal.
(§3) To assemble the preformed TR-FRET complexes, each biotinylated RAS protein is diluted to 2 μM in an EDTA Buffer (20 mM HEPES pH 7.5, 50 mM sodium chloride, 10 mM EDTA, and 0.01% Tween) and incubated at room temperature for one hour. This mixture is then further diluted to 90 nM in an Assay Buffer (20 mM HEPES pH 7.5, 150 mM sodium chloride, 10 mM magnesium chloride, and 0.005% Tween) containing 15 nM of Terbium-Streptavidin (Invitrogen, catalog #PV3577) and 900 nM of Bodipy-GDP (Invitrogen, catalog #G22360) and incubated at room temperature for six hours. It should be noted that this preformed TR-FRET complex for each of the RAS protein were made ahead of time, aliquoted and stored at −80° C. until the day of the experiment.
(§4) Each test compound (10 mM stock in DMSO) is diluted in DMSO to make a final-10-point, 3-fold dilution and is acoustically dispensed into a 384-well assay plate (Corning, catalog #3820) using an Echo 550 (Labcyte). Each well of the assay plate receives 3 μL of a specific 3×RAS preformed TR-FRET complex and 3 μL of Assay Buffer and is incubated at room temperature for 60 minutes (preincubation time). Each well then receives 3 μL of 3×recombinant human SOS protein and GTP (Sigma, G8877) in Assay Buffer and is incubated at room temperature for 30 minutes (G13D), 60 minutes (KRAS WT/G12C/D, H/NRAS) or 90 minutes for G12V. The final reaction in each well of 9 μL consists of 3 mM GTP, specific Ras and SOS proteins in the following concentrations: KRAS-G12C/SOS=3 nM/40 nM, KRAS-WT and G12D/SOS=1 nM/40 nM, KRAS-G12V/SOS=1.25 nM/160 nM. KRAS-G13D/SOS=1.25 nM/0 nM, HRAS and NRAS=1.25 nM/40 nM.
(§5) The time-resolved fluorescence resonance energy transfer (TR-FRET) signal is measured on an Envision (PerkinElmer) plate reader: Excitation filter=340 nm; emission 1=495 nm; emission2=520 nm; dichroic mirror=D400/D505; delay time=[…]. The signal of each well is determined as the ratio of the emission at 520 nm to that at 495 nm. Percent effect of each well is determined after normalization to control wells containing DMSO (no effect) or a saturating concentration of inhibitor (max effect). The apparent effect as a function of compound concentration is fit to a four-parameter logistic equation.

AsPC-1 cells = test: Cellular phospho-ERK assay, AsPC-1 cells (homozygous KRAS-G12D); assay type: cell-based; conditions: read-out: AsPC1 pERK IC50
Description: Procedure for Cellular Phospho-ERK Assay in KRAS Wild Type and Mutant (G12D, G12V) Cell Lines
MKN-1 cells (JCRB JCRB0252) containing amplified wild-type KRAS, were cultured in growth medium that contains RPMI 1640-GlutaMAX™-I (ThermoFisher Scientific 61870) containing 10% heat inactivated fetal bovine serum (ThermoFisher Scientific 10091148), 1 mM sodium pyruvate and 10 mM HEPES. PANC08.13 cells (ATCC® CRL-2551™), containing homozygous KRAS-G12D activating mutation, were cultured in growth medium made of RPMI1640-GlutaMAX™-I (ThermoFisher Scientific 61870) containing 15% heat inactivated fetal bovine serum (ThermoFisher Scientific 10091148)). AsPC-1 cells (ATCC® CRL-1682™), containing homozygous KRAS-G12D activating mutation, were cultured in T150 flask in growth medium (RPMI medium 1640-GlutaMAX™-I (ThermoFisher Scientific 61870) containing 10% fetal bovine serum (ThermoFisher Scientific 10091148)). SW620 cells (ATCC® […]), containing homozygous KRAS-G12V activating mutation, were cultured in growth medium that contains RPMI 1640-GlutaMAX™-I (ThermoFisher Scientific 61870) containing 10% heat inactivated fetal bovine serum (ThermoFisher Scientific 10091148).
Cells for the assay were harvested in growth medium after TrypLE (ThermoFisher scientific 12604021) digestion and were seeded in a 384-well collagen coated cell culture plate (Corning 356702) at a density of 10,000-15,000 cells/20 μL/well, and incubated at 37° C., 5% CO2 overnight. The compound (with 10 mM stock concentration) dose-response titrations were prepared [30 μM final ERK detection assay concentration and 1:3 dilutions, 10-point dose response] and appropriate amounts (270 nL) of test compounds were dispensed in a 384-well intermediate plate using an Echo 550 liquid handler. 30 μL/well of RPMI medium 1640-GlutaMAX™—I was added to the intermediate plate and the contents of the intermediate plate (10 μL/well) were then transferred to the 384-well collagen coated cell culture plate, which was incubated at 37° C., 5% CO2 for 2 hours. After removal of medium from the collagen coated cell culture plate, cells were lysed in lysis buffer from Alpha SureFire® Ultra™ Multiplex p-ERK and total ERK assay kit (PerkinElmer MPSU-PTERK) containing Halt™ Protease and Phosphatase inhibitor cocktail (ThermoFisher Scientific 78446) at room temperature with constant shaking at 300 rpm for 30 minutes. The cell lysates were then transferred to an OptiPlate-384 plate (PerkinElmer 6005620), and the phosphorylation of ERK (p-ERK) and total ERK levels were detected by Alpha SureFire® Ultra™ Multiplex p-EEK kit and total ERK assay kit (PerkinElmer MPSU-PTERK) following the manufacturer's protocol. Assay plates were read on a En Vision Multimode Plate Reader (PerkinElmer), and the ratio of p-ERK vs. total ERK in each well was used as the final readout. Dose response curves were analyzed using a 4-parameter logistic model to calculate IC50 values using Spotfire software.

KRAS-WT = KRAS-WT (Homo sapiens, UniProt P01116); test: SOS-catalyzed nucleotide exchange assay (Procedure A, TR-FRET), KRAS-WT; assay type: biochemical; conditions: nucleotide exchange, read-out: KRAS WT GNE IC50
Text: as §1, §2, §3, §4, §5

KRAS-G12V = KRAS-G12V (Homo sapiens, UniProt P01116, G12V); test: SOS-catalyzed nucleotide exchange assay (Procedure A, TR-FRET), KRAS-G12V; assay type: biochemical; conditions: nucleotide exchange, read-out: KRAS G12V GNE IC50
Text: as §1, §2, §3, §4, §5

[1] = Homo sapiens, ASPC1, 2 h, KRAS-G12D, 2 hours

Chain of KRAS-G12V (P01116 with tags, fused parts or gaps isoform P01116-2 G12V): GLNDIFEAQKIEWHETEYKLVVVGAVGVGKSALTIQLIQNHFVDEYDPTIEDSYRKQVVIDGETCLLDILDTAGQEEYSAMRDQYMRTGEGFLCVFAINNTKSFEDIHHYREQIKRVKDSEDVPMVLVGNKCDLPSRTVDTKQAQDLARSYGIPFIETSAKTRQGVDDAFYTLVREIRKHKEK
Chain of KRAS-WT (P01116 with tags, fused parts or gaps isoform P01116-2): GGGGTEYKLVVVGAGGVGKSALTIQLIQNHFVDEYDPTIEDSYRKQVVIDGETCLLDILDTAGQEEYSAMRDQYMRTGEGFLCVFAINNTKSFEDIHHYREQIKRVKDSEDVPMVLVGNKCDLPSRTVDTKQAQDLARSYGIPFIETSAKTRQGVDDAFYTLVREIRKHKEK
Chain of KRAS-G12D (P01116 with tags, fused parts or gaps isoform P01116-2 G12D): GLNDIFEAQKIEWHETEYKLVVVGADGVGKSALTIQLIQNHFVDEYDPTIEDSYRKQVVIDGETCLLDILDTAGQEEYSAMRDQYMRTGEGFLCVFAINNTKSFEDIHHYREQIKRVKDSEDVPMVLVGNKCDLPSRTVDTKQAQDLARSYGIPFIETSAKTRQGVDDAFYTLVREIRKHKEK

Structure (SMILES)	IC50 (KRAS-G12D) [nM]	IC50 (AsPC-1 cells; [1]) [nM]	IC50 (KRAS-WT) [nM]	IC50 (KRAS-G12V) [nM]	IC50 (AsPC-1 cells; KRAS-G12D, 2 hours) [nM]	IC50 (AsPC-1 cells; Homo sapiens, ASPC1, 2 h, 2 hours compound incubation) [nM]
C[C@@]1(O)COCCN(c2nc(OC[C@@]34CCCN3C[C@H](F)C4)nc3sc4c(-c5cccc6c5CC5CC65)nccc4c23)C1 (single isomer, unassigned) [Ex-119]	230	2150	662	157		
CN(C)C1CC(F)(F)C2C[C@]12COc1nc(N2CCOC[C@@](C)(O)C2)c2c(n1)sc1c(-c3c(C4(F)CC4)c(Cl)cc4[nH]ncc34)nccc12 (stereo partly drawn) [Ex-271]	42.2		78.8	37.3	244	
C[C@@]1(O)COCCN(c2nc(OC[C@@]34CCCN3C[C@H](F)C4)nc3sc4c(-c5c(C(F)F)c(C(F)(F)F)cc6[nH]ncc56)nccc4c23)C1 [Ex-61, (6S)-4-(8-(5-(difluoromethyl)-6-(trifluoromethyl)-1H-indazol-4-yl)-2-(((2R,7aS)-2-fluorotetrahydro-1H-pyrrolizin-7a(5H)-yl)methoxy)pyrido[4′,3′:4,5]thi-eno[2,3-d]pyrimidin-4-yl)-6-methyl-1,4-oxazepan-6-ol]	127	1280	231	236		
C[C@H]1C[C@@H](COc2nc(N3CCOC[C@@](C)(O)C3)c3c(n2)sc2c(-c4c(C5CC5)c(C(F)(F)F)cc5[nH]ncc45)nccc23)N(C)C1 [Ex-82, (6S)-4-(8-(5-cyclopropyl-6-(trifluoromethyl)-1H-indazol-4-yl)-2-(((2S,4S)-1,4-dimethylpyrrolidin-2-yl)methoxy)pyrido[4′,3′:4,5]thi-eno[2,3-d]pyrimidin-4-yl)-6-methyl-1,4-oxazepan-6-ol]	31.2	592	54.6	32.8		
C[C@@]1(O)COCCN(c2nc(OC[C@@]34CCCN3C[C@H](F)C4)nc3sc4c(-c5c(C6=CCC6)c(C(F)(F)F)cc6[nH]ncc56)nccc4c23)C1 [Ex-77, (6S)-4-(8-(5-(cyclobut-1-en-1-yl)-6-(trifluoromethyl)-1H-indazol-4-yl)-2-(((2R,7aS)-2-fluorotetrahydro-1H-pyrrolizin-7a(5H)-yl)methoxy)pyrido[4′,3′:4,5]thi-eno[2,3-d]pyrimidin-4-yl)-6-methyl-1,4-oxazepan-6-ol]	15	175	61.8	20.8		
C[C@H]1CN(C[C@@]2(COc3nc(N4CCOC[C@@](C)(O)C4)c4c(n3)sc3c(-c5c(C6(F)CC6)c(Cl)cc6[nH]ncc56)nccc34)CC2(F)F)[C@@H](C)CO1 [Ex-241, (6S)-4-(8-(6-chloro-5-(1-fluorocyclopropyl)-1H-indazol-4-yl)-2-(((R)-1-(((2S,5S)-2,5-dimethylmorpholino)methyl)-2,2-difluorocyclopropyl)methoxy)pyrido[4′,3′:4,5]thieno[2,3-d]pyrimidin-4-yl)-6-methyl-1,4-oxazepan-6-ol]	98.2		1860	308		1410
Cc1cc2[nH]ncc2c(-c2nccc3c2sc2nc(OC[C@@]45CCCN4C[C@H](F)C5)nc(N4CCOC[C@@](C)(O)C4)c23)c1C(C)(C)C#N [Ex-154, 2-(4-(2-(((2R,7aS)-2-fluorotetrahydro-1H-pyrrolizin-7a(5H)-yl)methoxy)-4-((S)-6-hydroxy-6-methyl-1,4-oxazepan-4-yl)pyrido[4′,3′:4,5]thieno[2,3-d]pyrimidin-8-yl)-6-methyl-1H-indazol-5-yl)-2-methylpropanenitrile]	104		277	103		
C=C1CN2CC(=C)CC2(COc2nc(N3CCOC[C@@](C)(O)C3)c3c(n2)sc2c(-c4c(C5CC5)c(Cl)cc5[nH]ncc45)nccc23)C1 [Ex-225, (6S)-4-(8-(6-chloro-5-cyclopropyl-1H-indazol-4-yl)-2-((2,6-dimethylene-tetrahydro-1H-pyrrolizin-7a(5H)-yl)methoxy)pyrido [4′,3′:4,5]thieno[2,3-d]pyrimidin-4-yl)-6-methyl-1,4-oxaze-pan-6-ol]	12.7		39.9	21.5		

Second part, the molecule after the results:

IC50 (KRAS-G12D) [nM]	IC50 (AsPC-1 cells; [1]) [nM]	IC50 (KRAS-WT) [nM]	IC50 (KRAS-G12V) [nM]	IC50 (AsPC-1 cells; KRAS-G12D, 2 hours) [nM]	IC50 (AsPC-1 cells; Homo sapiens, ASPC1, 2 h, 2 hours compound incubation) [nM]	Structure (SMILES)
35.4	426	64	36.8			Cn1c2nc(OC[C@@]34CCCN3C[C@H](F)C4)nc(N3CCOC[C@@](C)(O)C3)c2c2ccnc(-c3c(C4CC4)c(Cl)cc4[nH]ncc34)c21 (single isomer, unassigned) [Ex-2]
205	1110	52	50.3			F[C@H]1CN2CCC[C@@]2(COc2nc(N3CCCOCC3)c3c(n2)sc2c(-c4c(C5CC5)c(Cl)cc5[nH]ncc45)nncc23)C1 [Ex-286]
195	935	578	138			C[C@@]1(O)COCCN(c2nc(OC[C@@]34CCCN3C[C@H](F)C4)nc3sc4c(-c5cccc(Cl)c5C5CC5)nncc4c23)C1 [Ex-284]
404		908	280			C[C@@]1(O)COCCN(c2nc(OC[C@@]34CCCN3C[C@H](F)C4)nc3sc4c(-c5cccc(Cl)c5C5CC5)nccc4c23)C1 [Ex-122, (S)-4-(8-(3-chloro-2-cyclopropylphenyl)-2-(((2R,7aS)-2-fluorotetrahydro-1H-pyrrolizin-7a(5H)-yl)methoxy)pyri-do[4′,3′:4,5]thieno[2,3-d]pyrimidin-4-yl)-6-methyl-1,4-oxazepan-6-ol]
